Measured values taken from patent US20160287554A1, “Small Molecule Metal-Activated Protein Inhibition” (University of South Florida, priority 2015, published 2016).

Target: 20S proteasome (Homo sapiens, UniProt P28074)
Experiment: 20S proteasome chymotrypsin-like activity assay, cleavage of suc-leu-leu-val-tyr-AMC (fluorescence), with or without copper chloride
Format: biochemical
Conditions: one-dose experiments, 10 μM compound in the presence of 1 μM copper
Text: Pro-drug compounds, according to embodiments of the invention, include: 3,4-dihydroxybenzoic acid; galloflavin; 2-{[(carbamoylsulfanyl)acetyl]amino}benzoic acid; 6,7-Dihydroxycoumaranone; 3,6-bis(hydroxymethyl)pyridazin-4(1H)-one; and 4′,5,7-trihydroxyisoflavone, as shown in FIG. 1. These compounds, and analogs thereof, can act individually or can be used in combination. These compounds, and similar compounds, are capable of binding copper ions and facilitating inhibition of the proteasome. These compounds, and similar compounds, are safe and efficacious theranostics and/or drugs to detect and/or treat cancers. These compounds are from the NCI Diversity Set 3. Preliminary identification of these compounds as potential Cu-complexes with the proteasome was conducted using an in silico screening method, according to an embodiment of the invention, for example, with graphic representations of the calculated docking of the pro-drugs of FIG. 1 with copper ion and the proteasome, as shown in FIGS. 2-7. The modeling method indicates the potential of candidates as the pro-drugs, which are tested experimentally to confirm their efficiency using an in vitro experimental assay that tests for inhibition of the chymotrypsin-like activity of the 20S proteasome.
A Beckman Coulter Biomek FX^P Lab Automation Workstation was used for automating the assays. A Perkin Elmer EnVision 2102 multilabel plate reader was used to read the plates by fluorescence measurements. Assays were performed in 384 well black Nunc plates. Each compound (2 μl in DMSO), when tested without copper chloride was added to 28 μl of buffer (50 mM Tris at pH 7.6 and 37° C.), with 20 μM, 10 μl 20S proteasome and 10 μl of suc-leu-leu-val-tyr-AMC as the substrate (purchased from Boston Biochem), and the rate of substrate cleavage by 20S proteasome activity was determined. In the presence of copper, the buffer amount was decreased to 25 μl and 3 μl copper chloride was used for chelation with the compound for testing in the presence of copper. To allow chelation of copper to the compound, the plate was allowed to sit for 40 minutes with gentle shaking. The overall volume per well was held at 50 μL. The compounds and substrate were initially dissolved in 100% DMSO, but the final concentration of DMSO per well plate was reduced to less than 2% following subsequent dilutions. Plates were incubated at 37° C. for 2 hours. For dose response curves, the concentrations of copper chloride and a pro-drug compound, were varied to get optimal activity. The plates were read with 340 nm excitation and 460 nm emission using the plate reader. All liquid transfers to the plates were automated using the Biomek workstation.

## O=c1c(-c2ccc(O)cc2)coc2cc(O)cc(O)c12 [compound 36586, 4′,5,7-trihydroxyisoflavone]
  inhibition against the proteasome: superior inhibition

## O=C(O)c1ccc(O)c(O)c1 [compound 16631, 3,4-dihydroxybenzoic acid]
  inhibition against the proteasome: superior inhibition
